Measured values taken from US12281102B2, “Inhibitors of APOL1 and methods of using same” (Vertex Pharmaceuticals Incorporated, priority 2020, dated 2025).
Like-named read-outs stand apart in the source and are kept apart here.

Molecular target: T1, G1 APOL1 (Homo sapiens, UniProt O14791, I384M/S342G)
T1 construct: expressed in transfected cells
T1 sequence (O14791 28-398 S342G/I384M): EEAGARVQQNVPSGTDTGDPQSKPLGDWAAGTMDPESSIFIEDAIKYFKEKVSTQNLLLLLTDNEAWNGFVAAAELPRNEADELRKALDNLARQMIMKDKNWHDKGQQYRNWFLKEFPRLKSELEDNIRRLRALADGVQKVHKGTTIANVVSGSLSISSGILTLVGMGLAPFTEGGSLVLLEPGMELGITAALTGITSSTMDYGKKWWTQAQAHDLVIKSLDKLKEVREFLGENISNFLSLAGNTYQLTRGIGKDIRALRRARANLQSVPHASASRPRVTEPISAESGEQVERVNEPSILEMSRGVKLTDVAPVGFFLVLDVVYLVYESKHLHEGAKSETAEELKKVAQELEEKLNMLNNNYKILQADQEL
Experiment: Acute APOL1 Thallium Assay with inducible stable clones of HEK 293 cells
Assay type: cell-based
Settings: HEK 293 T-Rex inducible stable clone expressing G1 APOL1
Method in brief: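 APOL1 pore function was measured as thallium influx, detected by a Tl+-sensitive fluorescent dye loaded as AM ester, on a FLIPR Tetra after Tl+ addition. Cells were HEK T-Rex G1 APOL1 clone DC3.25, 26,000 per well, induced with tetracycline at plating in Opti-MEM assay medium.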

[1] = read-out: Thallium Assay (IC50)

SMILES	IC50 [1] [nM]	IC50 (Thallium Assay (IC50)) [nM]
CC(C)(C)OC(=O)NC1(C(=O)NC[C@H]2C[C@H](c3c(-c4ccc(F)cc4)[nH]c4c(F)cc(F)cc43)C2)CCC1 [Compound 286]	> 1000	
O=C1CC(C(=O)NC[C@H]2C[C@H](c3c(-c4ccc(F)cc4)[nH]c4c(F)cc(F)cc43)C2)C(=O)N1 (stereo partly shown) [Compound 287]	> 1000	
C[C@@]1(C(=O)NC[C@H]2C[C@H](c3c(-c4ccc(F)cc4)[nH]c4c(F)cc(F)cc43)C2)CCCN1 [Compound 289]	> 1000	
O=C1CC(C(=O)NC[C@H]2C[C@@H](c3c(-c4ccc(F)cc4)[nH]c4c(F)cc(F)cc43)C2)CC(=O)N1 [Compound 291]	> 1000	
O=C(CCN1CCCCC1)NC[C@H]1C[C@@H](c2c(-c3ccc(F)cc3)[nH]c3c(F)cc(F)cc32)C1 [Compound 293]	> 1000	
C[C@@H](NC(=O)OC(C)(C)C)C(=O)NC[C@H]1C[C@H](c2c(-c3ccc(F)cc3)[nH]c3c(F)cc(F)cc32)C1 [Compound 295]	> 1000	
O=C(CCN1CCCC1)NC[C@H]1C[C@@H](c2c(-c3ccc(F)cc3)[nH]c3c(F)cc(F)cc32)C1 [Compound 296]	> 1000	
CC(C(=O)NC[C@H]1C[C@@H](c2c(-c3ccc(F)cc3)[nH]c3c(F)cc(F)cc32)C1)n1ccnc1 (stereo partly shown) [Compound 299]	> 1000	
O=C(CC(=O)N1CCOCC1)NC[C@H]1C[C@@H](c2c(-c3ccc(F)cc3)[nH]c3c(F)cc(F)cc32)C1 [Compound 300]	> 1000	
CN(CC(=O)NC[C@H]1C[C@@H](c2c(-c3ccc(F)cc3)[nH]c3c(F)cc(F)cc32)C1)S(C)(=O)=O [Compound 305]	> 1000	
CS(=O)(=O)CCCC(=O)NC[C@H]1C[C@@H](c2c(-c3ccc(F)cc3)[nH]c3c(F)cc(F)cc32)C1 [Compound 308]	> 1000	
CC(C)(C)OC(=O)N1CC[C@@H]1C(=O)NC[C@H]1C[C@H](c2c(-c3ccc(F)cc3)[nH]c3c(F)cc(F)cc32)C1 [Compound 310]		> 1000
CC(C)(C)OC(=O)NC1(C(=O)NC[C@H]2C[C@H](c3c(-c4ccc(F)cc4)[nH]c4c(F)cc(F)cc43)C2)COC1 [Compound 311]	> 1000	
O=C(CC1CC(F)(F)C1)NC[C@H]1C[C@@H](c2c(-c3ccc(F)cc3)[nH]c3c(F)cc(F)cc32)C1 [Compound 313]	> 1000	
CN1CCCC(CC(=O)NC[C@H]2C[C@@H](c3c(-c4ccc(F)cc4)[nH]c4c(F)cc(F)cc43)C2)C1 (stereo partly shown) [Compound 315]	> 1000	
O=C(CC1(O)CCCCC1)NC[C@H]1C[C@@H](c2c(-c3ccc(F)cc3)[nH]c3c(F)cc(F)cc32)C1 [Compound 316]	> 1000	
O=C(CC1COC1)NC[C@H]1C[C@@H](c2c(-c3ccc(F)cc3)[nH]c3c(F)cc(F)cc32)C1 [Compound 319]	> 1000	
O=C(CC1CCCOC1)NC[C@H]1C[C@@H](c2c(-c3ccc(F)cc3)[nH]c3c(F)cc(F)cc32)C1 (stereo partly shown) [Compound 323]	> 1000	
COC1(CC(=O)NC[C@H]2C[C@@H](c3c(-c4ccc(F)cc4)[nH]c4c(F)cc(F)cc43)C2)CCC1 [Compound 324]	> 1000	

SMILES	IC50 [1] [nM]	IC50 (Thallium Assay (IC50)) [nM]
O=C(CC1CCOCC1)NC[C@H]1C[C@@H](c2c(-c3ccc(F)cc3)[nH]c3c(F)cc(F)cc32)C1 [Compound 325]	> 1000	
O=C(CCN1CCCC1=O)NC[C@H]1C[C@@H](c2c(-c3ccc(F)cc3)[nH]c3c(F)cc(F)cc32)C1 [Compound 326]	> 1000	
O=C(CN1CCCC1)NC[C@H]1C[C@@H](c2c(-c3ccc(F)cc3)[nH]c3c(F)cc(F)cc32)C1 [Compound 327]	> 1000	
O=C1CCC(C(=O)NC[C@H]2C[C@@H](c3c(-c4ccc(F)cc4)[nH]c4c(F)cc(F)cc43)C2)CN1 (stereo partly shown) [Compound 328]	> 1000	
CC[C@@H](NC(=O)OC(C)(C)C)C(=O)NC[C@H]1C[C@H](c2c(-c3ccc(F)cc3)[nH]c3c(F)cc(F)cc32)C1 [Compound 331]	> 1000	
O=C1NCC[C@H]1NS(=O)(=O)NC[C@H]1C[C@H](c2c(-c3ccc(F)cc3)[nH]c3c(F)cc(F)cc32)C1 [Compound 332, (3R)-3-[[3-[5,7-difluoro-2-(4-fluorophenyl)-1H-indol-3-yl]cyclobutyl]methylsulfamoylamino]pyrrolidin-2-one]	> 1000	
O=S(=O)(NCCN1CCC(O)C1)NC[C@H]1C[C@H](c2c(-c3ccc(F)cc3)[nH]c3c(F)cc(F)cc32)C1 (stereo partly shown) [Compound 333]	> 1000	
Cc1[nH]cnc1CCNS(=O)(=O)NC[C@H]1C[C@H](c2c(-c3ccc(F)cc3)[nH]c3c(F)cc(F)cc32)C1 [Compound 334]	> 1000	
O=C1CCCN1CCCNS(=O)(=O)NC[C@H]1C[C@H](c2c(-c3ccc(F)cc3)[nH]c3c(F)cc(F)cc32)C1 [Compound 335]	> 1000	
CN1CC(NS(=O)(=O)NC[C@H]2C[C@H](c3c(-c4ccc(F)cc4)[nH]c4c(F)cc(F)cc43)C2)CC1=O (stereo partly shown) [Compound 336]	> 1000	
CNC(=O)c1noc(CNS(=O)(=O)NC[C@H]2C[C@H](c3c(-c4ccc(F)cc4)[nH]c4c(F)cc(F)cc43)C2)n1 [Compound 337]	250 to 1000	
C[C@@H](CO)NS(=O)(=O)NC[C@H]1C[C@H](c2c(-c3ccc(F)cc3)[nH]c3c(F)cc(F)cc32)C1 [Compound 338]	250 to 1000	
O=S(=O)(NCCO)NC[C@H]1C[C@H](c2c(-c3ccc(F)cc3)[nH]c3c(F)cc(F)cc32)C1 [Compound 339]	< 250	
O=C1CCC(CNS(=O)(=O)NC[C@H]2C[C@H](c3c(-c4ccc(F)cc4)[nH]c4c(F)cc(F)cc43)C2)N1 (stereo partly shown) [Compound 340]	> 1000	
NC(=O)CNS(=O)(=O)NC[C@H]1C[C@H](c2c(-c3ccc(F)cc3)[nH]c3c(F)cc(F)cc32)C1 [Compound 341]	250 to 1000	
O=S(=O)(NC[C@H]1C[C@H](c2c(-c3ccc(F)cc3)[nH]c3c(F)cc(F)cc32)C1)NC1(CO)CC1 [Compound 343]	250 to 1000	
O=S(=O)(NC[C@H]1C[C@H](c2c(-c3ccc(F)cc3)[nH]c3c(F)cc(F)cc32)C1)N[C@H]1C[C@H](O)C1 [Compound 344]	> 1000	
O=C1NCCC1CNS(=O)(=O)NC[C@H]1C[C@H](c2c(-c3ccc(F)cc3)[nH]c3c(F)cc(F)cc32)C1 (stereo partly shown) [Compound 345]	> 1000	
O=S(=O)(NC[C@H]1C[C@H](c2c(-c3ccc(F)cc3)[nH]c3c(F)cc(F)cc32)C1)NC(CO)CF (stereo partly shown) [Compound 346]	250 to 1000	

More lines, main results first:

IC50 [1] [nM]	SMILES	IC50 (Thallium Assay (IC50)) [nM]
> 1000	O=C(NC[C@H]1C[C@H](c2c(-c3ccc(F)cc3)[nH]c3c(F)cc(F)cc32)C1)c1ccncn1 [Compound 288]	
> 1000	O=C(NC[C@H]1C[C@H](c2c(-c3ccc(F)cc3)[nH]c3c(F)cc(F)cc32)C1)c1n[nH]c(=O)[nH]1 [Compound 290]	
> 1000	O=C(NC[C@H]1C[C@H](c2c(-c3ccc(F)cc3)[nH]c3c(F)cc(F)cc32)C1)c1ccn[nH]1 [Compound 292]	
> 1000	O=C1CC(C(=O)NC[C@H]2C[C@@H](c3c(-c4ccc(F)cc4)[nH]c4c(F)cc(F)cc43)C2)CN1 (stereo partly shown) [Compound 294]	
> 1000	O=C(NC[C@H]1C[C@H](c2c(-c3ccc(F)cc3)[nH]c3c(F)cc(F)cc32)C1)c1cccnn1 [Compound 297]	
> 1000	O=C(NC[C@H]1C[C@H](c2c(-c3ccc(F)cc3)[nH]c3c(F)cc(F)cc32)C1)c1cn[nH]c1 [Compound 298]	
> 1000	CC(C)C(O)C(=O)NC[C@H]1C[C@@H](c2c(-c3ccc(F)cc3)[nH]c3c(F)cc(F)cc32)C1 (stereo partly shown) [Compound 301]	
> 1000	O=C(NC[C@H]1C[C@@H](c2c(-c3ccc(F)cc3)[nH]c3c(F)cc(F)cc32)C1)c1nc[nH]n1 [Compound 302]	
> 1000	O=C1NCCC1C(=O)NC[C@H]1C[C@@H](c2c(-c3ccc(F)cc3)[nH]c3c(F)cc(F)cc32)C1 (stereo partly shown) [Compound 303]	
> 1000	O=C(NC[C@H]1C[C@H](c2c(-c3ccc(F)cc3)[nH]c3c(F)cc(F)cc32)C1)c1ccc(=O)[nH]c1 [Compound 304]	
> 1000	O=C(Cn1cnnc1)NC[C@H]1C[C@@H](c2c(-c3ccc(F)cc3)[nH]c3c(F)cc(F)cc32)C1 [Compound 307]	
> 1000	O=C(NC[C@H]1C[C@@H](c2c(-c3ccc(F)cc3)[nH]c3c(F)cc(F)cc32)C1)c1cnn[nH]1 [Compound 309]	
> 1000	O=C(NC[C@H]1C[C@H](c2c(-c3ccc(F)cc3)[nH]c3c(F)cc(F)cc32)C1)c1ccn[nH]c1=O [Compound 312]	
> 1000	O=C(NC[C@H]1C[C@H](c2c(-c3ccc(F)cc3)[nH]c3c(F)cc(F)cc32)C1)c1ccc[nH]1 [Compound 314]	
> 1000	O=C(NC[C@H]1C[C@@H](c2c(-c3ccc(F)cc3)[nH]c3c(F)cc(F)cc32)C1)c1cn[nH]c1 [Compound 317]	
> 1000	CN(C)CC(=O)NC[C@H]1C[C@@H](c2c(-c3ccc(F)cc3)[nH]c3c(F)cc(F)cc32)C1 [Compound 320]	
> 1000	Cc1nccn1CC(=O)NC[C@H]1C[C@@H](c2c(-c3ccc(F)cc3)[nH]c3c(F)cc(F)cc32)C1 [Compound 321]	
> 1000	Cn1nccc1CC(=O)NC[C@H]1C[C@@H](c2c(-c3ccc(F)cc3)[nH]c3c(F)cc(F)cc32)C1 [Compound 322]	
> 1000	Nc1nonc1C(=O)NC[C@H]1C[C@H](c2c(-c3ccc(F)cc3)[nH]c3c(F)cc(F)cc32)C1 [Compound 329]	
> 1000	O=C(NC[C@H]1C[C@H](c2c(-c3ccc(F)cc3)[nH]c3c(F)cc(F)cc32)C1)c1ccc[nH]c1=O [Compound 330]	
